# Read-outs that look alike come from different tables or passages of the source. No end group written: not given here.
# Columns and labels:
# 2B4.11 hybridoma = assay: Antigen presentation assay (IL-2 produced in response to antigen); format: cell-based; conditions: for % Ave IL2 Production: average, Tables 1-3; for IL2 %: 50 μM, relative to DMSO control (100%); for IL-2 production, % of the solvent only control value: 0.5% DMSO, ±SD
# S. aureus = format: cell-based
# Experimental: (§1) The synthetic C1 peptide and its analogues were tested using Standard disk susceptibility testing by National Committee for […] Laboratory Standards (NCCLS) against, S. aureus, E. coli and S. pneumoniae. […]
# E. coli = assay: Standard disk susceptibility testing (NCCLS), E. coli; format: cell-based
# Experimental: as §1
# S. pneumoniae = assay: Standard disk susceptibility testing (NCCLS), S. pneumoniae; format: cell-based
# Experimental: as §1
# allergic mice (OVA/OVA) [1] = assay: Allergic airways disease (OVA) model: inflammatory cells in BALF; format: in vivo; set-up: key to Airway lymphocytes / Airway eosinophils / Airway macrophages / Airway inflammatory cells / Airway neutrophils: nc: no change; ↑: increase; ↓: decrease; conditions: for Airway eosinophils / Airway inflammatory cells / Airway lymphocytes / Airway macrophages / Airway neutrophils: 200 μg/100 μl s.c. during OVA challenge, compared to OVA/OVA alone
# allergic mice (OVA/OVA) [2] = assay: Allergic airways disease (OVA) model: local and systemic OVA-specific cytokine production; format: in vivo; set-up: key to Spleen OVA-stimulated IL-5 / Spleen OVA-stimulated IL-13 / LN OVA-stimulated IL-5 / LNOVA stimulated IL-13: nc: no change; ↑: increase; ↓: decrease; conditions: for LN OVA-stimulated IL-5 / LNOVA stimulated IL-13 / Spleen OVA-stimulated IL-5 / Spleen OVA-stimulated IL-13: 200 μg/100 μl s.c. during OVA challenge, compared to OVA/OVA alone
# allergic mice (OVA/OVA) [3] = assay: Allergic airways disease (OVA) model: airways hyperreactivity to methacholine; format: in vivo; set-up: key to Airway Resistance / Airway Compliance: nc: no change; ↑: increase; ↓: decrease; conditions: for Airway Compliance / Airway Resistance: 200 μg/100 μl s.c. during OVA challenge, compared to OVA/OVA alone
# [4] = Surface plasmon resonance binding to DMPC liposomes; conditions: SPR, L1 sensor chip, 50 μM, 25° C.
# Experimental: (§2) Model membranes composed of zwitterionic and anionic phospholipids were prepared as previously described (Bender et al., 2004). Briefly, DMPC and DMPG were dissolved in dry chloroform and chloroform/methanol (2:1) respectively to give 10 mg/ml solutions. […] The solution was sonicated in an ultrasonic bath for 20 min. Eight cycles of freeze/thawing was followed by extrusion through polycarbonate filters, first 100 nm (21 times) then 50 nm pore diameter (21 times), using a Lipofast apparatus (Avestin, Ottawa, Canada) and SUVs were used immediately. SPR was carried out on a BIAcore 2000 instrument using Pioneer Sensor Chip L1 and HEPES (HBS-N, Biacore, Upssala, Sweden) as running buffer. The chip surface was cleaned with 40 mM octyl glycoside (30 μl, 10 μl/min) followed liposomes (SUV) (100 μl, 5 μl/min). 10 mM NaOH (40 μl, 10 μl/min) removed any multilamellar vesicles from the surface before injecting the lipopeptide solutions (100 μl, 5 μl/min). The dissociation stage was 1200 sec. […] All SPR experiments were run at 25° C. and all analyses were performed using the BIAevaluation software (Biacore, Uppsala, Sweden). Lipopeptide binding was expressed as the difference in signal between points before sample injection and after dissociation.
# [5] = Surface plasmon resonance binding to DMPG liposomes; conditions: for binding to DMPG (anionic) liposomes: SPR, L1 sensor chip, 50 μM, 25° C.
# Experimental: as §2
# trypsin = format: in vitro ADME
# Experimental: The effect of trypsin on C1 and CP was studied by incubating each peptide (1 μg/μl) in methanol and ammonium bicarbonate (0.1M) with 125 ng/μl of trypsin at pH 8 and 37° C. The effect of trypsin after incubation with CP and C1 was followed by mass spectrometry. […]
# [6] = fifth IL2 column (individual experiment in triplicate)
# [7] = fourth IL2 column (individual experiment in triplicate)
# [8] = second IL2 column (individual experiment in triplicate)
# [9] = third IL2 column (individual experiment in triplicate)
# [10] = first IL2 column (individual experiment in triplicate)
# [11] = 200 μg s.c. during challenge, allergic mice
compound,measurement,setting,value
LDRLDKLDLLDKVDG (cyclo(LDRLDKLDLLDKVDG); ring closure inferred; not fully specified) [C9],% Ave IL2 Production,2B4.11 hybridoma,25%
same,IL2 %,2B4.11 hybridoma; [6],16.9%
same,IL2 %,2B4.11 hybridoma; [7],6.75%
same,IL2 %,2B4.11 hybridoma; [8],11.5%
same,IL2 %,2B4.11 hybridoma; [9],(65.3) %
LDRLDKLDKLDKVDG (cyclo(LDRLDKLDKLDKVDG); ring closure inferred; not fully specified) [C10],% Ave IL2 Production,2B4.11 hybridoma,59%
same,IL2 %,2B4.11 hybridoma; [6],64.1%
same,IL2 %,2B4.11 hybridoma; [7],54%
"Cc1onc(-c2ccccc2)c1C(=O)N[C@@H]1C(=O)N2[C@@H]1SC(C)(C)[C@@H]2C(=O)O [Oxacillin, reference compound]","antimicrobial activity, S. aureus",S. aureus; 1 μg/ml,+ve
same,"antimicrobial activity, E. coli",E. coli; 1 μg/ml,−ve
same,"antimicrobial activity, S. pneumoniae",S. pneumoniae; 1 μg/ml,+ve
LDKLDLLDLLDKVDG (cyclo(LDKLDLLDLLDKVDG); ring closure inferred; not fully specified) [C5],% Ave IL2 Production,2B4.11 hybridoma,78%
same,IL2 %,2B4.11 hybridoma; [10],73.6%
same,IL2 %,2B4.11 hybridoma; [8],75%
same,IL2 %,2B4.11 hybridoma; [9],85.4%
LDLLDRLDLLDKVDG (cyclo(LDLLDRLDLLDKVDG); ring closure inferred; not fully specified) [C6],% Ave IL2 Production,2B4.11 hybridoma,99%
same,IL2 %,2B4.11 hybridoma; [10],104.5%
same,IL2 %,2B4.11 hybridoma; [8],104%
same,IL2 %,2B4.11 hybridoma; [9],89%
"C[C@H]1C[C@@H]2[C@H]([C@@H](O)C[C@@]3(C)[C@H]2CC[C@]3(O)C(=O)CO)[C@@]2(C)C=CC(=O)C=C12 [methylprednisolone, reference compound]",Airway eosinophils,allergic mice (OVA/OVA) [1],↓
same,Airway inflammatory cells,allergic mice (OVA/OVA) [1],↓
same,Airway lymphocytes,allergic mice (OVA/OVA) [1],nc
same,Airway macrophages,allergic mice (OVA/OVA) [1],↓
same,Airway neutrophils,allergic mice (OVA/OVA) [1],↓
same,LN OVA-stimulated IL-5,allergic mice (OVA/OVA) [2],nc
same,LNOVA stimulated IL-13,allergic mice (OVA/OVA) [2],nc
same,Spleen OVA-stimulated IL-5,allergic mice (OVA/OVA) [2],↓
same,Spleen OVA-stimulated IL-13,allergic mice (OVA/OVA) [2],↓
same,Airway Compliance,allergic mice (OVA/OVA) [3],↑
same,Airway Resistance,allergic mice (OVA/OVA) [3],↓
RDLLDLLDLLDKVDG [C7],% Ave IL2 Production,2B4.11 hybridoma,49%
same,IL2 %,2B4.11 hybridoma; [6],76.4%
same,IL2 %,2B4.11 hybridoma; [10],29%
same,IL2 %,2B4.11 hybridoma; [7],71%
same,IL2 %,2B4.11 hybridoma; [8],15.4%
same,IL2 %,2B4.11 hybridoma; [9],54%
LDRLDKKDKLDKVDG (cyclo(LDRLDKKDKLDKVDG); ring closure inferred; not fully specified) [C12],% Ave IL2 Production,2B4.11 hybridoma,27%
same,IL2 %,2B4.11 hybridoma; [6],24%
same,IL2 %,2B4.11 hybridoma; [10],9.0%
same,IL2 %,2B4.11 hybridoma; [7],33.7%
same,IL2 %,2B4.11 hybridoma; [8],21%
same,IL2 %,2B4.11 hybridoma; [9],(49) %
LDRLDLLDLLDRVDG [C4],% Ave IL2 Production,2B4.11 hybridoma,72%
same,"IL-2 production, % of the solvent only control value",2B4.11 hybridoma; peptide 50 μM,74.54%±11.22
same,binding to DMPC (zwitterionic) liposomes,[4],no binding at all
same,binding to DMPG (anionic) liposomes,[5],no binding at all
same,"antimicrobial activity, S. aureus",S. aureus; peptide 10 μg/ml,−ve
same,"antimicrobial activity, S. aureus",S. aureus; peptide 100 μg/ml,−ve
same,"antimicrobial activity, S. aureus",S. aureus; peptide 1000 μg/ml,−ve
same,"antimicrobial activity, E. coli",E. coli; peptide 10 μg/ml,−ve
same,"antimicrobial activity, E. coli",E. coli; peptide 100 μg/ml,−ve
same,"antimicrobial activity, E. coli",E. coli; peptide 1000 μg/ml,−ve
same,"antimicrobial activity, S. pneumoniae",S. pneumoniae; peptide 10 μg/ml,−ve
same,"antimicrobial activity, S. pneumoniae",S. pneumoniae; peptide 100 μg/ml,−ve
same,"antimicrobial activity, S. pneumoniae",S. pneumoniae; peptide 1000 μg/ml,−ve
LDRLDKVDG (cyclo(LDRLDKVDG); ring closure inferred; not fully specified) [6AA],% Ave IL2 Production,2B4.11 hybridoma,35%
same,IL2 %,2B4.11 hybridoma; [6],44.3%
same,IL2 %,2B4.11 hybridoma; [10],9.0%
same,IL2 %,2B4.11 hybridoma; [7],33.7%
same,IL2 %,2B4.11 hybridoma; [8],36.5%
same,IL2 %,2B4.11 hybridoma; [9],(52) %
LDLLDLLDRLDKVDG (cyclo(LDLLDLLDRLDKVDG); ring closure inferred; not fully specified) [C8],% Ave IL2 Production,2B4.11 hybridoma,33%
same,IL2 %,2B4.11 hybridoma; [6],17.4%
same,IL2 %,2B4.11 hybridoma; [7],20.2%
same,IL2 %,2B4.11 hybridoma; [8],35%
same,IL2 %,2B4.11 hybridoma; [9],(61.2) %
LDRLDLLDLLDKVDG [C1-L],% Ave IL2 Production,2B4.11 hybridoma,90%
same,"IL-2 production, % of the solvent only control value",2B4.11 hybridoma; peptide 50 μM,only minimal activity
same,binding to DMPC (zwitterionic) liposomes,[4],only very limited binding
same,binding to DMPG (anionic) liposomes,[5],only very limited binding
same,eosinophils in BALF,allergic mice (OVA/OVA) [1]; [11],decrease
same,total inflammatory cell counts in bronchoalveolar lavage fluid (BALF),allergic mice (OVA/OVA) [1]; [11],significantly decreased
same,Airway eosinophils,allergic mice (OVA/OVA) [1],↓
same,Airway inflammatory cells,allergic mice (OVA/OVA) [1],↓
same,Airway lymphocytes,allergic mice (OVA/OVA) [1],nc
same,Airway macrophages,allergic mice (OVA/OVA) [1],nc
same,Airway neutrophils,allergic mice (OVA/OVA) [1],nc
same,locally produced (peribronchial lymph node derived) IL-5,allergic mice (OVA/OVA) [2]; [11],no significant impact
same,locally produced (peribronchial lymph node derived) IL-13,allergic mice (OVA/OVA) [2]; [11],no significant impact
same,systemic (spleen derived) IL-5,allergic mice (OVA/OVA) [2]; [11],significantly decreased
same,systemic (spleen derived) IL-13,allergic mice (OVA/OVA) [2]; [11],no change
same,LN OVA-stimulated IL-5,allergic mice (OVA/OVA) [2],nc
same,LNOVA stimulated IL-13,allergic mice (OVA/OVA) [2],nc
same,Spleen OVA-stimulated IL-5,allergic mice (OVA/OVA) [2],↓
same,Spleen OVA-stimulated IL-13,allergic mice (OVA/OVA) [2],nc
same,airway resistance in response to methacholine challenge,allergic mice (OVA/OVA) [3]; [11],no significant effect
same,dynamic compliance in response to methacholine challenge,allergic mice (OVA/OVA) [3]; [11],no significant effect
same,Airway Compliance,allergic mice (OVA/OVA) [3],nc
same,Airway Resistance,allergic mice (OVA/OVA) [3],nc
"GLRILLLKV [CP, GLRILLLKV, reference compound]","stability without trypsin, 3 hours (Mass spectroscopy-MS)",trypsin,No degradation product
same,"stability without trypsin, 24 hours (MS)",trypsin,No degradation product
LDKLDKKDKLDKVDG (cyclo(LDKLDKKDKLDKVDG); ring closure inferred; not fully specified) [C11],% Ave IL2 Production,2B4.11 hybridoma,96%
same,IL2 %,2B4.11 hybridoma; [8],88.5%
same,IL2 %,2B4.11 hybridoma; [9],104%
LDKLDKLDKLDKVDG [C2],% Ave IL2 Production,2B4.11 hybridoma,22%
same,"IL-2 production, % of the solvent only control value",2B4.11 hybridoma; peptide 25 μM,58.74%±7.63
same,"IL-2 production, % of the solvent only control value",2B4.11 hybridoma; peptide 50 μM,24.51%±8.81
same,binding to DMPC (zwitterionic) liposomes,[4],only very limited binding
same,binding to the anionic liposome,[5]; SPR sensorgram,3000 RU
same,"antimicrobial activity, S. aureus",S. aureus; peptide 10 μg/ml,−ve
same,"antimicrobial activity, S. aureus",S. aureus; peptide 100 μg/ml,−ve
same,"antimicrobial activity, S. aureus",S. aureus; peptide 1000 μg/ml,−ve
same,"antimicrobial activity, E. coli",E. coli; peptide 10 μg/ml,−ve
same,"antimicrobial activity, E. coli",E. coli; peptide 100 μg/ml,−ve
same,"antimicrobial activity, E. coli",E. coli; peptide 1000 μg/ml,−ve
same,"antimicrobial activity, S. pneumoniae",S. pneumoniae; peptide 10 μg/ml,−ve
same,"antimicrobial activity, S. pneumoniae",S. pneumoniae; peptide 100 μg/ml,−ve
same,"antimicrobial activity, S. pneumoniae",S. pneumoniae; peptide 1000 μg/ml,−ve
LDRLDLLDKVDG [8AA],% Ave IL2 Production,2B4.11 hybridoma,72%
"LDRLDLLDKLDKVDG (cyclo(LDRLDLLDKLDKVDG); ring closure inferred; not fully specified) [C3, cyclic peptide 3]",% Ave IL2 Production,2B4.11 hybridoma,95%
same,"IL-2 production, % of the solvent only control value",2B4.11 hybridoma; peptide 50 μM,91.69%±25.86
same,binding to DMPC (zwitterionic) liposomes,[4],no binding at all
same,binding to DMPG (anionic) liposomes,[5],no binding at all
same,"antimicrobial activity, S. aureus",S. aureus; peptide 100 μg/ml,−ve
same,"antimicrobial activity, S. aureus",S. aureus; peptide 1000 μg/ml,−ve
same,"antimicrobial activity, E. coli",E. coli; peptide 100 μg/ml,−ve
same,"antimicrobial activity, E. coli",E. coli; peptide 1000 μg/ml,−ve
same,"antimicrobial activity, S. pneumoniae",S. pneumoniae; peptide 100 μg/ml,−ve
same,"antimicrobial activity, S. pneumoniae",S. pneumoniae; peptide 1000 μg/ml,−ve
"CO/N=C(\C(=O)N[C@@H]1C(=O)N2C(C(=O)O)=C(COC(C)=O)CS[C@H]12)c1csc(N)n1 [Ceforaxime, reference compound]","antimicrobial activity, S. aureus",S. aureus; 30 μg/ml,−ve
same,"antimicrobial activity, E. coli",E. coli; 30 μg/ml,+ve
same,"antimicrobial activity, S. pneumoniae",S. pneumoniae; 30 μg/ml,−ve

# Reference: patent US20120077732A1, “CYCLIC PEPTIDES AND USES THEREOF” (SYDNEY WEST AREA HEALTH SERVICE, priority 2008, published 2012)
